Earlier results as cited in article PMC7395068, “The evolution of strategies to minimise the risk of human drug-induced liver injury (DILI) in drug discovery and development” (Archives of Toxicology, 2020).
Where two headings read alike, the source gives them in different places.

Legend:
[1] = cited from earlier work
[2] = cited from earlier work; remark: listed apart in the source
[3] = test system: primary human hepatocytes, NIH3T3 fibroblasts, BSEP, CYP3A4; conditions: cited from earlier work
[4] = In vitro Assay, ref Schadt 2015

Row | Compound | In vivo DILI ([1]; […]) | DILI +VE (5-8), DILI -VE (-4) ([2]; ref Chen 2016) | DILI severity category ([2]; ref Chen 2016) | In vivo DILI ([1]; in vivo) | DILI +VE (5-8), DILI -VE (-4) ([2]; in vivo) | DILI severity category ([2]; in vivo) | other results
1 | COc1ccc(OC)c(C(O)CNC(=O)CN)c1 (stereo not drawn) [midodrine] | -VE | -VE | vNo-DILI-Concern | – | – | – | –
2 | NC(=O)C[S+]([O-])C(c1ccccc1)c1ccccc1 (stereo not drawn) [modafinil] | -VE | +VE | vLess-DILI-Concern | – | – | – | –
3 | CC(C)[C@H]1CC[C@H](C(=O)N[C@H](Cc2ccccc2)C(=O)O)CC1 [nateglinide] | -VE | -VE | Ambiguous DILI-concern | – | – | – | –
4 | CC1(C)NC(=O)N(c2ccc([N+](=O)[O-])c(C(F)(F)F)c2)C1=O [nilutamide] | +VE | +VE | vMost-DILI-Concern | – | – | – | –
5 | CC1COc2c(N3CCN(C)CC3)c(F)cc3c(=O)c(C(=O)O)cn1c23 (stereo not drawn) [ofloxacin] | – | – | – | +VE | +VE | vLess-DILI-Concern | –
6 | COc1ccc2[nH]c([S+]([O-])Cc3ncc(C)c(OC)c3C)nc2c1 (stereo not drawn) [omeprazole] | -VE | +VE | vLess-DILI-Concern | – | – | – | –
7 | CN1CC[C@]23c4c5ccc(O)c4O[C@H]2C(=O)CC[C@@]3(O)[C@H]1C5 [oxymorphone] | -VE | -VE | vNo-DILI-Concern | – | – | – | –
8 | CC(=O)O[C@H]1C(=O)[C@@]2(C)[C@H]([C@H](OC(=O)c3ccccc3)[C@]3(O)C[C@H](OC(=O)[C@H](O)[C@@H](NC(=O)c4ccccc4)c4ccccc4)C(C)=C1C3(C)C)[C@]1(OC(C)=O)CO[C@@H]1C[C@@H]2O [paclitaxel] | – | +VE | vLess-DILI-Concern | – | – | – | In vivo DILI ([1]; ref O'Brien 2006): +VE; In vivo DILI ([1]; ref Persson 2013): +VE
9 | NC1=NC(=O)C(c2ccccc2)O1 (stereo not drawn) [pemoline] | – | – | – | +VE | +VE | vMost-DILI-Concern | –
10 | C[C@H]1[C@H](c2ccccc2)OCCN1C [phendimetrazine] | -VE | -VE | vNo-DILI-Concern | – | – | – | –
11 | CC(C)(N)Cc1ccccc1 [phentermine] | -VE | +VE | vLess-DILI-Concern | – | – | – | –
12 | CCN(CC)CCNC(=O)c1ccc(N)cc1 [procainamide] | – | – | – | +VE | +VE | vLess-DILI-Concern | –
13 | CNNCc1ccc(C(=O)NC(C)C)cc1 [procarbazine] | – | – | – | +VE | +VE | vLess-DILI-Concern | –
14 | O=P(O)(O)C(O)(Cc1cccnc1)P(=O)(O)O [risedronate] | -VE | -VE | Ambiguous DILI-concern | – | – | – | –
15 | C#CCN(C)[C@H](C)Cc1ccccc1 [selegiline] | – | – | – | -VE | -VE | vNo-DILI-Concern | –
16 | CCOC(=O)COC1CCN(C(=O)[C@H](C)NC(=O)c2ccc(C(=N)NO)cc2)CC1 [sibrafiban] | – | – | – | – | – | – | Cellular toxicity (3T3 cells) [3, 4]: -VE; Combined Assay [3, 4]: -VE; GSH adduct HML [3, 4]: -VE; Hepatocyte cellular toxicity [3, 4]: -VE; MitoTox 3T3 [3, 4]: -VE; TDI CYP3A4 [3, 4]: -VE; hBSEP inhibition [3, 4]: -VE; In vivo DILI ([1]; ref Schadt 2015): -VE
17 | CN1C(C(=O)Nc2nccs2)=C(O)c2ccccc2S1(=O)=O [sudoxicam] | – | – | – | – | – | – | Cellular toxicity (3T3 cells) [3]: -VE; Combined Assay [3]: -VE; GSH adduct HML [3]: -VE; Hepatocyte cellular toxicity [3]: -VE; MitoTox 3T3 [3]: -VE; TDI CYP3A4 [3]: -VE; hBSEP inhibition [3]: -VE
18 | COc1cc2nc(N3CCN(C(=O)C4CCCO4)CC3)nc(N)c2cc1OC (stereo not drawn) [terazosin] | -VE | -VE | vNo-DILI-Concern | – | – | – | In vivo DILI ([1]; ref Aleo 2019): -VE
19 | C[C@]12CC[C@H]3[C@@H](CCC4=CC(=O)CC[C@@]43C)[C@@H]1CC[C@@H]2O [testosterone] | – | – | – | -VE | +VE | vMost-DILI-Concern | –
20 | Cc1cccc(Nc2ccncc2S(=O)(=O)NC(=O)NC(C)C)c1 [torasemide] | -VE | -VE | Ambiguous DILI-concern | – | – | – | –
21 | COc1cc(Cc2cnc(N)nc2N)cc(OC)c1OC [trimethoprim] | -VE | +VE | vLess-DILI-Concern | – | – | – | In vivo DILI ([1]; ref Garside 2014): +VE
22 | capreomycin | – | – | – | -VE | -VE | Ambiguous DILI-concern | –
